Where two headings read alike, the source gives them in different places.
Tests used:
[1] = target: T1, human DNA-PK (Homo sapiens, UniProt P78527); assay: Standard DNA-PK assay (p53 peptide phosphorylation); assay type: biochemical
T1 construct: The frozen HeLa cell pellet was thawed at 37° C. and immediately centrifuged; endogenous in cells; host or cells: HeLa S3 cells (ATCC CCL-2.2); Endogenous enzyme purified via S100-2 fraction, Q-Sepharose FF and SP-Sepharose FF (fraction IV)
Description: Reactions were carried out at room temperature. Reactions were started by addition of ATP and stopped by application to phosphocellulose paper. Reaction products spotted onto phosphocellulose paper were washed five times with a total volume of at least 250 mL 10% acetic acid or 150 mM phosphoric acid. The paper was air dried and radioactivity was determined in a Beckman LS6000IC scintillation counter.

[2] = test system: cultured human tumor cell lines (Table 4) and normal human fibroblast cell line MRC5; assay: Cellular toxicity, MTS dye metabolism assay; details: 200 μM continuously for 48 h
Description: Cultured cells were distributed on 96-well microtiter plates and allowed to adhere for at least 16 h.

[3] = test system: HCT116 cells (human colon carcinoma) xenograft tumors; assay: Animal tumor model, drug plus γ-radiation; assay type: in vivo, athymic BALB/c (nu/nu) mice; details: average tumor burden 500 mg; drug and 300 rad once daily for two days
Description: HCT116 cells (human colon carcinoma) were used to propagate xenograft tumors in 6-8 week old female athymic BALB/c (nu/nu) mice. Mice were maintained in a laminar airflow cabinet under pathogen-free conditions and fed sterile food and water ad libitum. HCT116 cells were grown to subconfluence in McCoy's media supplemented with 10% FBS, 100 U/mL penicillin, 100 μg/mL streptomycin, and 1.5 mM L-glutamine in a 5% CO2 humidified environment. Single cell suspensions were prepared in CMF-PBS (0.9 mM KCl, 2.7 mM KH2PO4, 13.8 mM NaCl, pH 7.5), and cell concentration adjusted to 4×10^7 cells/mL. Mice were inoculated subcutaneously (s.c.) on the right flank or right leg with a total of 4×10^6 cells (100 μL).
Mice were randomized (5 mice/group) into four treatment groups and used when tumors reached a weight of 75 to 100 mg (usually 7 to 11 days post-inoculation). Tumors were measured with vernier calipers and tumor weights were estimated using the empirically-derived formula below. Tumor weight(mg)=tumor length(mm)×tumor width(mm)^2/3.3. […] Tumor size was monitored every other day for the duration of the experiment.

[4] = test system: DR3 cells (cultured mouse B-lymphocytes); assay: V(D)J recombination assay; assay type: cell-based; details: 50 μM
Description: Recombination assays were performed as previously described (Leu et al., Mol. Cell. Biol 15:5657-5670 (1995)). […] Cells were concentrated and washed in HBS (containing 30 mM HEPES-KOH, pH 7.5, 140 mM NaCl, and 5 mM KCl) and resuspended in HBS at a density of 2.0×10^8 cells/mL. Cells (1.0×10^7) were transiently transfected by electroporation with 10 μg of the recombination substrate pJH200 (Leu et al., Mol. Cell. Biol. 15:5657-5670 (1995)) and transferred to a 90 mm cell culture dish containing 8 mL media with or without 2-hydroxy-4-morpholin-4-yl-benzaldehyde as described above. After 2 days, cells were removed from the dish with a rubber policeman, concentrated, washed one time with PBS, and resuspended in 0.1 mL lysis buffer (0.3% Triton X-100, 50 mM Tris-HCl, pH 7.5, 50 mM EDTA). Following a five min incubation at room temperature, cellular debris was removed by centrifugation at 12,000 rpm for two min in a microfuge. The supernatant was extracted sequentially with phenol and chloroform/[…] (24:1), after which, one tenth volume 3 M sodium acetate and 2 volumes cold 100% ethanol were added to the aqueous phase. Precipitated nucleic acid was collected by centrifugation at 12,000 rpm for 15 min and suspended in 25 μL water. An aliquot of the material was used to transform DH5α cells by electroporation. […]

[5] = Pharmacokinetic analysis after subcutaneous administration; assay type: in vivo, mice
[6] = test system: Colon carcinoma cells (HCT116)
[7] = test system: thymocytes from BALB/c and BALB/c p53-/p53- mice; HL60, Jurkat, JY, B16/F10, WS1; assay: Cell viability, trypan blue exclusion assay; assay type: cell-based, human and mouse; details: up to 32 μM (thymocytes), up to 25 μM (cell lines), several days
Description: Cell viability was also tested during drug treatment using the trypan blue exclusion assay. […] Cultured cells were incubated in the presence of varying concentrations of 2-hydroxy-4-morpholin-4-yl-benzaldehyde up to 32 μM. Cultured human and mouse cell lines were incubated in RPMI 1640 media containing 10% FBS, 100 U/mL penicillin and 100 μg/mL streptomycin at 37° C. with 5% CO2 in a humidified incubator with 2-hydroxy-4-morpholin-4-yl-benzaldehyde for several days. Tumor cell lines, HL60, Jurkat, JY and B16/F10 and the normal cell line WS1 were tested using this assay when incubated at drug concentrations up to 25 μM.

[8] = test system: human colon carcinoma cell line HCT116; assay: cells; assay type: cell-based; details: for GI50: Homo sapiens
Description: Cells plated at a density of 5,000 to 20,000 per well in 96-well microtiter plates were grown in RMPI 1640 containing 10% FBS, 100 U/mL penicillin and 100 μg/mL streptomycin, for 18 h at 37° C. in a humidified incubator with 5% CO2. Cells tested included ACHN, 786-0, HCT-116, SW620, SK-MEL-5, SK-MEL-28, A549, H322, OVCAR-3, SK-OV-3, MCF-7, MDA-MB-231, MOLT4, HL60, SNB-19, PC-3. Cells were treated with media containing chemotherapeutic drugs alone or with media containing chemotherapeutic drugs and a DNA-PK inhibitor of the invention, 1-(2-hydroxy-4-morpholin-4-yl-phenyl)-ethanone. Cells were incubated for two days before growth was measured using a tetrazolium dye assay (MTS). Chemotherapeutic drugs included bleomycin etoposide, vinblastine, doxorubicin, paclitaxel, cisplatin, chlorambucil, cyclophosphamide, 5-fluorouracil, cytosine-arabinoside, 6-mercaptoguanine and methotrexate (all purchased from Sigma). The drug concentration necessary to inhibit cell growth to 50% of untreated control cells was defined as the GI50.

[9] = read-out: IC50 (nM) DNA-PK Assay
[10] = with 1-(2-hydroxy-4-morpholin-4-yl-phenyl)-ethanone

## Nc1cc(NN2CCOCC2)ccc1[N+](=O)[O-] [Example 16, N^1-Morpholin-4-yl-4-nitrobenzene-1,3-diamine]
[1]; [9]
  IC50: 1000 nM

## Nc1cc(N2CCNCC2)ccc1[N+](=O)[O-] [Example 20, 2-Nitro-5-piperazin-1-yl-phenylamine]
[1]; [9]
  IC50: 10000 nM

## O=C(O)c1ccc(N2CCOCC2)cc1O [Example 29, 2-Hydroxy-4-morpholin-4-yl-benzoic Acid]
[1]; [9]
  IC50: 500 nM

## COC(=O)c1ccc(N2CCOCC2)cc1O [Example 30, 2-Hydroxy-4-morpholin-4-yl-benzoic Acid Methyl Ester]
[1]; [9]
  IC50: 500 nM

## O=Cc1ccc(N2CCOCC2)cc1O [Example 32, 2-Hydroxy-4-morpholin-4-yl-benzaldehyde]
[2]
  killing of cell lines, MTS dye metabolism assay: no evidence of killing
[1]; [9]
  IC50: 400 nM
[3]
  tumors shrank: greater than 10 fold
[4]
  DNA rearrangement (V(D)J recombination) inhibited: 8 fold
[5]
  duration of high plasma concentration: remained high for about one hour
[6]; 200 μM
  sensitivity of HCT116 to killing by γ-radiation: increased the sensitivity
[7]
  cells sensitive to killing, trypan blue exclusion method: In no instances were cells sensitive to killing

## O=[N+]([O-])c1ccc(N2CCOCC2)cc1O [Example 33, 5-Morpholin-4-yl-2-nitro-phenol]
[1]; [9]
  IC50: 2000 nM

## CCC(=O)c1ccc(N2CCOCC2)cc1O [Example 35, 1-(2-Hydroxy-4-morpholin-4-yl-phenyl)-propan-1-one]
[1]; [9]
  IC50: 120 nM

## CC(C)CC(=O)c1ccc(N2CCOCC2)cc1O [Example 36, 1-(2-Hydroxy-4-morpholin-4-yl-phenyl)-3-methyl-butan-1-one]
[1]; [9]
  IC50: 150 nM

## O=C(c1ccccc1)c1ccc(N2CCOCC2)cc1O [Example 37, 1-(2-Hydroxy-4-morpholin-4-yl-phenyl)-1-phenyl-methanone]
[1]; [9]
  IC50: 120 nM

## O=C(c1ccc(N2CCOCC2)cc1O)C(F)(F)F [Example 38, 2,2,2-Trifluoro-1-(2-hydroxy-4-morpholin-4-yl-phenyl)-ethanone]
[1]; [9]
  IC50: 250 nM

## CC(=O)c1ccc(N2CCOCC2)c(Cl)c1O [Example 42 B, 1-(3-Chloro-2-hydroxy-4-morpholin-4-yl-phenyl)-ethanone]
[1]; [9]
  IC50: 14000 nM

## CC(=O)c1cc(F)c(N2CCOCC2)cc1O [Example 43 C, 1-(5-Fluoro-2-hydroxy-4-morpholin-4-yl-phenyl)-ethanone]
[1]; [9]
  IC50: 1500 nM

## CC(=O)c1ccc(N2CCOCC2)c(F)c1O [Example 43 D, 1-(3-Fluoro-2-hydroxy-4-morpholin-4-yl-phenyl)-ethanone]
[1]; [9]
  IC50: 240 nM

## COc1cc(N2CCOCC2)ccc1C=O [Example 46 A, 2-Methoxy-4-morpholin-4-yl-benzaldehyde]
[1]; [9]
  IC50: 10000 nM

## COC(=O)c1cc(N2CCOCC2)ccc1O [Example 47, 2-Hydroxy-5-morpholin-4-yl-benzoic Acid Methyl Ester]
[1]; [9]
  IC50: 40000 nM

## O/N=C/c1ccc(N2CCOCC2)cc1O [Example 48, 2-((Hydroxyimino)methyl)-5-morpholin-4-yl-phenol]
[1]; [9]
  IC50: 1000 nM

## N/N=C/c1ccc(N2CCOCC2)cc1O [Example 49, 2-Hydrazonomethyl-5-morpholin-4-yl-phenol]
[1]; [9]
  IC50: 1000 nM

## O=C(O)C(F)(F)F.O=C(O)c1ccc(CN2CCOCC2)cc1O [Example 52, 2-Hydroxy-4-morpholin-4-ylmethyl-benzoic Acid Trifluoroacetate]
other
  melting point: 138 to 146 °C

## O=C(O)CCCc1ccc(N(CCCl)CCCl)cc1 [chlorambucil]
[8]; HCT-116, read-out: GI50, chemotherapeutic drug alone
  GI50: 120000 nM
[8]; HCT-116, read-out: GI50, in the presence of DNA-PK inhibitor
  GI50: 14000 nM

## C[C@@]12c3ccc4c(c3C(=O)c3occ(c31)C(=O)C[C@H]2O)CCC4=O [demethoxyviridin, reference compound]
[1]; standard kinase reaction, read-out: IC50, enzyme activity inhibited
  IC50: 5 nM

## COc1cc([C@@H]2c3cc4c(cc3[C@@H](O[C@@H]3O[C@@H]5CO[C@@H](C)O[C@H]5[C@H](O)[C@H]3O)[C@H]3COC(=O)[C@H]23)OCO4)cc(OC)c1O [etoposide, reference compound]
[8]; HCT-116, with 1-(2-hydroxy-4-morpholin-4-yl-phenyl)-ethanone, read-out: GI50, in the presence of DNA-PK inhibitor
  GI50: 14000 nM
[8]; HCT-116, without DNA-PK inhibitor, read-out: GI50, chemotherapeutic drug alone
  GI50: 120000 nM
[6]; 24 h etoposide
  LD50 of etoposide without DNA-PK inhibitor: 1.1 µM
  LD90 of etoposide without DNA-PK inhibitor: 2.9 µM
[6]; [10]
  LD50 of etoposide with DNA-PK inhibitor: 0.075 µM
  LD90 of etoposide with DNA-PK inhibitor: 0.9 µM

## bleomycin
[8]; 100 μM 1-(2-hydroxy-4-morpholin-4-yl-phenyl)-ethanone
  GI50, in the presence of DNA-PK inhibitor: 3×10^−2 units/mL
[8]; without DNA-PK inhibitor
  GI50, chemotherapeutic drug alone: 2×10^−1 units/mL
